Activity calls are given as the source filed them. The rule behind the calls is not given here.
Assays:
Assay type in all cases: functional, cell-based
A549 [1] = experiment: Potentiation of gallium acetylacetonate-induced antiproliferative activity against gallium-sensitive human A549 cells at 0.25 uM after 48 hrs by MTT assay
A549 [2] = experiment: Potentiation of gallium acetylacetonate-induced antiproliferative activity against gallium-resistant human A549 cells at 0.25 uM after 48 hrs by MTT assay
A549 [3] = experiment: Effect on AXL protein expression in gallium-sensitive human A549 cells at 50 uM fter 48 hrs by immunofluorescence assay
A549 [4] = experiment: Antiproliferative activity against gallium-sensitive human A549 cells after 48 hrs by MTT assay; conditions: A549, 48 h
A549 [5] = experiment: Reduction in AXL protein expression in gallium-resistant human A549 cells at 50 uM fter 48 hrs by immunofluorescence assay
A549 [6] = experiment: Antiproliferative activity against gallium-resistant human A549 cells after 48 hrs by MTT assay; conditions: A549, 48 h
A549 [7] = experiment: Potentiation of gallium acetylacetonate-induced antiproliferative activity against gallium-resistant human A549 cells assessed as allium acetylacetonate IC50 at 0.25 uM after 48 hrs by MTT assay; conditions: A549, 48 h

Oc1c(CN2CCN(Cc3ccc4cccnc4c3O)CC2)ccc2cccnc12
Activity (A549 [1]): inactive
Activity (A549 [2]): Active
Activity (A549 [3]): inactive
IC50 (A549 [4]): 3.6 µM
Activity (A549 [5]): Active
IC50 (A549 [6]): 2.8 µM
IC50 (A549 [7]): 102 µM

O=C(CSc1nnnn1-c1cccc2ccccc12)c1ccc(O)c(O)c1
Activity (A549 [1]): inactive
Activity (A549 [2]): Active
Activity (A549 [3]): inactive
IC50 (A549 [4]): 8.6 µM
Activity (A549 [5]): Active
IC50 (A549 [6]): 17.4 µM
IC50 (A549 [7]): 199 µM

— ChEMBL document CHEMBL3352544, “Screening and identification of novel compounds with potential anti-proliferative effects on gallium-resistant lung cancer through an AXL kinase pathway” (Bioorg Med Chem Lett, 2014)
